# Laboratory results reported in patent US20030139391A1 (priority 2000, published 2003).
# Test system: Patients diagnosed with Alzheimer's Disease
# Assay: Adverse events and discontinuation in 5-month slow-titration trial
# Assay type: in vivo, human
# Method: Subjects in the Placebo group received 21 weeks (5 months) of placebo medication.
# The safety of the drug was also monitored throughout the study. Blood samples for biochemistry and haematology and random urine sample for urinalysis were taken at each visit and at completion for all efficacy testing. Systolic and diastolic blood pressure were measured in the sitting position, pulse and vital signs were recorded at each visit.
structure (smiles),measurement,setting,value
"COc1ccc2c3c1O[C@H]1C[C@@H](O)C=C[C@@]31CCN(C)C2 [GAL, galantamine]",Agitation: % of patients,8 mg/day,(15.0%)
same,Agitation: number of patients,8 mg/day,21
same,Anorexia: % of patients,8 mg/day,(5.7%)
same,Anorexia: number of patients,8 mg/day,8
same,Bradycardia: % of patients,8 mg/day,(3.6%)
same,Bradycardia: number of patients,8 mg/day,5
same,Convulsions: number of patients,8 mg/day,0
same,DC due to adverse event: %,8 mg/day,6%
same,DC due to adverse event: N,8 mg/day,9
same,DC due to inefficacy: %,8 mg/day,1 (1%)
same,DC due to inefficacy: N,8 mg/day,1 (1%)
same,Depression: % of patients,8 mg/day,(2.9%)
same,Depression: number of patients,8 mg/day,4
same,Diarrhea: % of patients,8 mg/day,(5.0%)
same,Diarrhea: number of patients,8 mg/day,7
same,Dizziness: % of patients,8 mg/day,(5.0%)
same,Dizziness: number of patients,8 mg/day,7
same,Dyspepsia: % of patients,8 mg/day,(2.9%)
same,Dyspepsia: number of patients,8 mg/day,4
same,Edema peripheral: % of patients,8 mg/day,(6.4%)
same,Edema peripheral: number of patients,8 mg/day,9
same,Fall: % of patients,8 mg/day,(7.9%)
same,Fall: number of patients,8 mg/day,11
same,Fatigue: % of patients,8 mg/day,(2.1%)
same,Fatigue: number of patients,8 mg/day,3
same,Headache: % of patients,8 mg/day,(3.6%)
same,Headache: number of patients,8 mg/day,5
same,Injury: % of patients,8 mg/day,(3.6%)
same,Injury: number of patients,8 mg/day,5
same,Muscle weakness: % of patients,8 mg/day,(0.7%)
same,Muscle weakness: number of patients,8 mg/day,1
same,Nausea: % of patients,8 mg/day,(5.7%)
same,Nausea: number of patients,8 mg/day,8
same,Rhinitis: % of patients,8 mg/day,(6.4%)
same,Rhinitis: number of patients,8 mg/day,9
same,Serious adverse event Abdominal pain: %,8 mg/day,(0.0%)
same,Serious adverse event Abdominal pain: number,8 mg/day,0
same,Serious adverse event Agitation: %,8 mg/day,(1.4%)
same,Serious adverse event Agitation: number,8 mg/day,2
same,Serious adverse event Asthenia: %,8 mg/day,(0.0%)
same,Serious adverse event Asthenia: number,8 mg/day,0
same,Serious adverse event Basal cell carcinoma: %,8 mg/day,(0.0%)
same,Serious adverse event Basal cell carcinoma: number,8 mg/day,0
same,Serious adverse event Breast neoplasm female: %,8 mg/day,(0.0%)
same,Serious adverse event Breast neoplasm female: number,8 mg/day,0
same,Serious adverse event Cardiac failure: %,8 mg/day,(0.0%)
same,Serious adverse event Cardiac failure: number,8 mg/day,0
same,Serious adverse event Dehydration: %,8 mg/day,(0.0%)
same,Serious adverse event Dehydration: number,8 mg/day,0
same,Serious adverse event Diarrhea: %,8 mg/day,(0.0%)
same,Serious adverse event Diarrhea: number,8 mg/day,0
same,Serious adverse event Dyspnea: %,8 mg/day,(0.0%)
same,Serious adverse event Dyspnea: number,8 mg/day,0
same,Serious adverse event Fall: %,8 mg/day,(2.9%)
same,Serious adverse event Fall: number,8 mg/day,4
same,Serious adverse event Gi haemorrhage: %,8 mg/day,(0.0%)
same,Serious adverse event Gi haemorrhage: number,8 mg/day,0
same,Serious adverse event Injury: %,8 mg/day,(0.7%)
same,Serious adverse event Injury: number,8 mg/day,1
same,Serious adverse event Myocardial infarction: %,8 mg/day,(2.1%)
same,Serious adverse event Myocardial infarction: number,8 mg/day,3
same,Serious adverse event Nausea: %,8 mg/day,(0.0%)
same,Serious adverse event Nausea: number,8 mg/day,0
same,Serious adverse event Pneumonia: %,8 mg/day,(0.7%)
same,Serious adverse event Pneumonia: number,8 mg/day,1
same,Serious adverse event Sepsis: %,8 mg/day,(0.0%)
same,Serious adverse event Sepsis: number,8 mg/day,0
same,Serious adverse event Surgical intervention: %,8 mg/day,(0.0%)
same,Serious adverse event Surgical intervention: number,8 mg/day,0
same,Serious adverse event Syncope: %,8 mg/day,(0.7%)
same,Serious adverse event Syncope: number,8 mg/day,1
same,Serious adverse event Thrombophlebitis deep: %,8 mg/day,(0.0%)
same,Serious adverse event Thrombophlebitis deep: number,8 mg/day,0
same,Serious adverse event Transient ischemic attack: %,8 mg/day,(0.7%)
same,Serious adverse event Transient ischemic attack: number,8 mg/day,1
same,Serious adverse event Urinary tracq infection: %,8 mg/day,(0.7%)
same,Serious adverse event Urinary tracq infection: number,8 mg/day,1
same,Serious adverse event Vomiting: %,8 mg/day,(0.0%)
same,Serious adverse event Vomiting: number,8 mg/day,0
same,Syncope: % of patients,8 mg/day,(1.4%)
same,Syncope: number of patients,8 mg/day,2
same,Total discontinued (DC): %,8 mg/day,23%
same,Total discontinued (DC): N,8 mg/day,32
same,Total patients with any SAE: %,8 mg/day,(10.0%)
same,Total patients with any SAE: number,8 mg/day,14
same,Urinary tract infection: % of patients,8 mg/day,(7.9%)
same,Urinary tract infection: number of patients,8 mg/day,11
same,Vomiting: % of patients,8 mg/day,(3.6%)
same,Vomiting: number of patients,8 mg/day,5
same,Weight decrease: % of patients,8 mg/day,(1.4%)
same,Weight decrease: number of patients,8 mg/day,2
same,Agitation: % of patients,16 mg/day,(10.0%)
same,Agitation: number of patients,16 mg/day,28
same,Anorexia: % of patients,16 mg/day,(6.5%)
same,Anorexia: number of patients,16 mg/day,18
same,Bradycardia: % of patients,16 mg/day,(2.5%)
same,Bradycardia: number of patients,16 mg/day,7
same,Convulsions: number of patients,16 mg/day,0
same,DC due to adverse event: %,16 mg/day,7%
same,DC due to adverse event: N,16 mg/day,19
same,DC due to inefficacy: N,16 mg/day,0
same,Depression: % of patients,16 mg/day,(8.6%)
same,Depression: number of patients,16 mg/day,24
same,Diarrhea: % of patients,16 mg/day,(12.2%)
same,Diarrhea: number of patients,16 mg/day,34
same,Dizziness: % of patients,16 mg/day,(5.4%)
same,Dizziness: number of patients,16 mg/day,15
same,Dyspepsia: % of patients,16 mg/day,(4.7%)
same,Dyspepsia: number of patients,16 mg/day,13
same,Edema peripheral: % of patients,16 mg/day,(2.9%)
same,Edema peripheral: number of patients,16 mg/day,8
same,Fall: % of patients,16 mg/day,(5.05%)
same,Fall: number of patients,16 mg/day,14
same,Fatigue: % of patients,16 mg/day,(3.6%)
same,Fatigue: number of patients,16 mg/day,10
same,Headache: % of patients,16 mg/day,(6.8%)
same,Headache: number of patients,16 mg/day,19
same,Injury: % of patients,16 mg/day,(4.3%)
same,Injury: number of patients,16 mg/day,12
same,Muscle weakness: % of patients,16 mg/day,(1.1%)
same,Muscle weakness: number of patients,16 mg/day,3
same,Nausea: % of patients,16 mg/day,(13.3%)
same,Nausea: number of patients,16 mg/day,37
same,Rhinitis: % of patients,16 mg/day,(3.2%)
same,Rhinitis: number of patients,16 mg/day,9
same,Serious adverse event Abdominal pain: %,16 mg/day,(0.7%)
same,Serious adverse event Abdominal pain: number,16 mg/day,2
same,Serious adverse event Agitation: %,16 mg/day,(0.4%)
same,Serious adverse event Agitation: number,16 mg/day,1
same,Serious adverse event Asthenia: %,16 mg/day,(0.7%)
same,Serious adverse event Asthenia: number,16 mg/day,2
same,Serious adverse event Basal cell carcinoma: %,16 mg/day,(0.0%)
same,Serious adverse event Basal cell carcinoma: number,16 mg/day,0
same,Serious adverse event Breast neoplasm female: %,16 mg/day,(0.0%)
same,Serious adverse event Breast neoplasm female: number,16 mg/day,0
same,Serious adverse event Cardiac failure: %,16 mg/day,(1.1%)
